The numbers were not newly measured in US20030229111A1, “Naltrexone hydrochloride compositions” (priority 2002, published 2003), which cites them from elsewhere.

For data set [1] the following is noted: in vivo, po.

Molecules are shown by their SMILES.

Consider `O=C1CC[C@@]2(O)[C@H]3Cc4ccc(O)c5c4[C@@]2(CCN3CC2CC2)[C@H]1O5` [naltrexone, Naltrexone], for which the protein binding result was “approximately 21%”. Further, in data set [1], the “time within which rapidly absorbed” value is no more than 1 h.
